# Results: US7157570B2, “Human ribonucleotide reductase M2 subunit” (priority 2002, dated 2007)
# Legend:
# KB cells = assay: colony-forming assay; type: cell-based, human; conditions: drug alone (0.1 mM HU or 0.3 μM Gem)
# Experimental: Human oropharyngeal carcinoma KB cells (American Type Culture Collection) were cultured on plastic tissue culture plates in RPMI 1640 supplemented with 10% fetal bovine serum at 37° C. in a humidified atmosphere containing 5% carbon dioxide. […] In all studies, HU was included in the growth medium where indicated at a concentration of 0.1 mM while Gem was provided at a concentration of 0.3 μM.
# The colony-forming ability of KB cells treated with HU and/or Gem at varying times was determined. Equal numbers of logarithmically growing cells were treated with HU and/or Gem at the times specified and then plated in 6-well tissue culture dishes as previously described (Zhou et al. (1998) Biochem Pharmaco 55, 1657–1665). The numbers of colonies, consisting of at least 50 cells, for each sample were counted after incubation at 37° C. for 8 generation times.
# The colony-forming ability of KB cells treated with HU and/or Gem was assayed using the ID50 concentrations for KB cells. KB cells were exposed to 0.1 mM HU. 0.3 μM Gem was added after 2 to 24 hours of HU treatment, and then cells were assayed for their colony forming ability.
# KBGem clone = conditions: cited from earlier work
# [1] = phase I trial: dose-limiting toxicities and MTD; type: in vivo, human; conditions: on days 2 and 9; HU 500 mg every 6 h x4 on days 1 and 8
# Experimental: Pregnant female patients were excluded.
# Patients received the chemotherapy as outpatients.
# Hematologic dose-limiting toxicity (DLT) was defined as a platelet count <75,000/μl on day 8, or a platelet count <25,000/μl lasting seven or more days, an ANC <1,000/μl on day 8 or an ANC <500/μl lasting seven or more days. Hepatic DLT was defined as bilirubin 4.5–6.0 mg/dl or transaminase 8.0–20.0 times normal (grade 3), and bilirubin >6.0 mg/dl or transaminase more than 20.0 times normal (grade 4). Other toxicities were graded according to the NCl Common Toxicity Criteria Version 1.0. Dose escalations and determination of the maximum tolerated dose (MTD) were based on DLT occurring in the first cycle. MTD was defined as the highest dose tested at which none or only one patient experienced DLT when at least six patients were treated at that dose and were evaluable for toxicity. Patients received additional cycles of therapy until unacceptable toxicity required discontinuation of treatment, the patient requested discontinuation, or disease progression occurred.
# clinical = assay: clinical; set-up: species or system human; conditions: in vivo
# Experimental: Blood sample were collected in heparinized tubes and kept on ice until plasma could be separated by centrifugation (within 30 min). Plasma was transferred to polypropylene tubes containing tetrahydrouridine to inhibit cytidine deaminase and stored at -70° C. until analysis. […] Detection was performed by UV absorbance at 275 nm. […] The inter- and intra-day coefficient of variation across the entire range of the standard curve were <10%, and the accuracies were ±7%. The lower limit of quantification of the assay was 5 ng/ml. […] Data were fitted to a two-compartment model with first-order elimination.
compound,measurement,setting,value
"Nc1ccn([C@@H]2O[C@H](CO)[C@@H](O)C2(F)F)c(=O)n1 [Gemcitabine, gemcitabine]","colony formation, % of untreated controls",KB cells,approximately 50%
same,increase in resistance (to Gem),KBGem clone,10 fold
same,MTD for gemcitabine in this combination of drugs,[1],750 mg/m^2
same,t1/2 alpha,clinical; human,2.4 ± 1.4 min
same,variation of CLsys within a single dose level,clinical; human,about 6 fold
same,half-life,"clinical; human, t1/2 alpha",2.6 ± 1.9 min
same,half-life,"clinical; human, t 1/2 alpha, Mean",2.7 min
same,half-life,"clinical; human, t1/2 beta",15.2 ± 5.3 min
same,differences in pharmacokinetic parameters between day 2 and day 9,clinical,no significant differences
same,effect of administered dose on CLsys,clinical,no apparent effect
